Measured values taken from patent US11857322B2, “Systems and methods for screening, diagnosing, and stratifying patients” (BlackThorn Therapeutics, Inc., priority 2018, dated 2024).

Assays:
[1] = test system: patients with major depressive disorder; assay: Randomized, placebo controlled study of BTRX-246040 in patients with major depressive disorder; type: in vivo, human
From the text: The disclosed systems and methods were used in a randomized, placebo controlled study to identify patients that would respond to BTRX-246040 (LY2940094)—a nociceptin receptor antagonist (“NOPA”). Details about the chemical structure and other properties, uses and indications for BTRX-246040 are disclosed in J M Witkin et al., “Therapeutic Approaches for NOP Receptor Antagonists in Neurobehavioral Disorders: Clinical Studies in Majority Depressive Disorder and Alcohol Use Disorder with BTRX-246040,” the content of which is incorporated herein by reference in its entirety. Additionally, BTRX-246040, it's uses, indications, treatments, and forms are disclosed in U.S. Pat. No. 8,232,289 filed Nov. 10, 2010, titled “Spiropiperidine Compounds as ORL-1 Receptor Antagonists” and U.S. Publication NO. 2012/0214784 filed Aug. 23, 2012 titled “Spiropiperidine Compounds as ORL-1 Receptor Antagonists,” both of which are incorporated by reference in their entirety herein.
During the study disclosed herein, BTRX-246040 was administered once daily in patients with major depressive disorder without anhedonia. The study included 73 patients with 38 randomized to BTRX-246040 and 35 randomized to the placebo. The BTRX group had 17 responders and the placebo had 15 responders. The study included the following methods: • 28 days screening period • Eight (8 (weeks of active treatment • Off-drug follow up after one to two weeks • 104 MDD patients randomized • 1:1 ratio stratified by SHAPS≤4 and SHAPS>4 • dosage: 40 mg first week, then 80 mg onwards when tolerated
The following are known clinical questionnaires that were utilized at the indicated time points above: • Montgomery-Asberg Depression Scale (MADRS) • Hamilton Anxiety Scale (HAMA) • Hospital Anxiety and Depression Scale (HADS-A/HADS-D) • Snaith-Hamilton Pleasure Scale (SHAPS) • Dimensional Anhedonia Rating Scale (DARS) Tasks
The primary outcome of the study utilized was the clinical scale MADRS total at week 8. […]

[2] = test system: patients with mood and anxiety spectrum disorders; assay: FAST-MAS phase 2a study of CERC-501 in mood and anxiety spectrum disorders; type: in vivo, human
From the text: In another example, during a phase 2a study known as FAST-MAS was run to evaluate the Kappa Opioid Receptor (“KOR”) as a target for the treatment of mood and anxiety spectrum disorders. Additionally, CERC-501, it's uses, indications, treatments, and forms are disclosed in PCT Publication No. WO2018170492, filed Mar. 16, 2018, titled “Kappa Opioid Receptor Antagonists and Products and Methods Related Thereto” which is incorporated by reference herin in its entirety. During the trial, CERC-501 was tested to see whether it engaged key neural circuitry related to the hedonic response.
The FAST-MAS trial included a 30-day screening period, followed by 8 weeks of active treatment, follow up 12 weeks of off-drug follow up after baseline. The study included […] (of 163 enrolled) to include 45 on CERC-501 and 44 to the Placebo. The patients received […] daily for the 8 weeks of active treatment.
Patients were eligible for enrollment if they met both: • (i) DSM-IV TR critiera for at least one of: • MDD • Bipolar I or II Depressed • GAD • Social Phobia • Panic Disorder • PTSD; and • (ii) SHAPS score of ≥20
Furthermore, the primary outcome measures were the following measures included in Table 7 below. These include the fMRI, the SHAPS scale, and the PRT task as disclosed herein

SMILES	number of responders ([1]; 38 patients randomized to BTRX-246040, once daily, 40 mg first week then 80 mg, 8 weeks, high responder = MADRS decrease by 50% from baseline)	group level treatment effects versus placebo ([1]; across all subjects, MADRS total at week 8, FIGS. 15A-15B)	change on the MADRS scale in patients identified by the classifiers as higher responders ([1]; after the 8-week study, subgroup chosen by classifiers from baseline data, FIGS. 16A-16B)	impact on patients identified using the Bayesian Decision Lists versus patients generally that received active treatment ([2]; subgroup identified by rule list, FIGS. 26A-26B)	outcome and treatment response ([2]; whole patient cohort, 8 weeks of active treatment)
Cc1nn(-c2ncccc2CO)cc1CN1CCC2(CC1)OCC(F)(F)c1cc(Cl)sc12 [BTRX-246040]	17	did as well as the placebo	greater than 5 point	–	–
Cc1cc(C)cc([C@@H]2CCCN2Cc2ccc(Oc3ccc(C(N)=O)cc3F)cc2)c1 [CERC-501]	–	–	–	greater on the patients identified using the Bayesian Decision Lists than the impact generally on the patients that received the active treatment	illustrated a difference in the outcome and treatment response
